How the values were obtained:
winter wheat = assay: Field trial winter wheat, plant biomass and yield parameters; type: in vivo; details: field conditions; for Bulk density: control 0.67; for The Thousand Grain Weight (TGW): control 41.90; for Yield: control 76.50; for Biomass: control 157.50
Protocol: (§1) Field trials were conducted in Poland according to approved EPPO guidelines: PP 1/135(4), PP 1/152(4), PP 1/181(4) (general), PP 1/1(4) (sugar beet), PP 1/28 (3), PP 1/26(4) (winter wheat), PP 1/78(4) (oilseed), PP1/263 (1), PP1/16 (3) (strawberry), PP 1/2 (5), PP 1/263 (1) (potato). The spray volumes were in line with farmers' practice, varying between 200-300 l/ha. The applications were processed as per the EPPO guideline specific for each crop.

oilseed rape = assay: Field trial oilseed rape, plant biomass and yield quality/quantity parameters; type: in vivo; details: field conditions; for The Thousand Grain Weight (TGW): Tables 31-33, control 5.64; for Bulk density: control 0.65; for Yield: control 25.49; for Biomass: control 90.00
Protocol: as §1

Sclerotinia sclerotiorum = assay: Field trial oilseed rape, efficacy against Sclerotinia sclerotiorum; type: in vivo; details: field conditions, tank-mix, control (no treatment) 6.28
Protocol: (§2) The rates of application (use) of the composition of the present invention (MFA) vary according to type of use, type of crop, the specific active ingredient in the combination, but is such that the active ingredient in the combination is an effective amount to provide the desired action (such as disease control). The application rate of the composition for a given set of conditions can readily be determined by trials.
as §1

Colletotrichum spp. = assay: Field trial soya, efficacy against Colletotrichum spp.; type: in vivo; details: field conditions, tank-mix, control (no treatment) 4.21
soya = assay: Field trial soya, plant biomass and yield parameters; type: in vivo; details: field conditions; for Bulk density: control 0.728; for Yield: control 37.41; for Biomass: control 190.0; for The Thousand Grain Weight (TGW): control 205.3
Protocol: as §1

Phoma lingam = assay: Field trial oilseed rape, efficacy against Phoma lingam; type: in vivo; details: field conditions, tank-mix, control (no treatment) 4.18
Protocol: as §2, §1

Peronospora manshurica = assay: Field trial soya, efficacy against Peronospora manshurica; type: in vivo; details: field conditions, tank-mix, control (no treatment) 5.66
Protocol: as §2, §1

Zymoseptoria tritici = assay: Field trial winter wheat, efficacy against Zymoseptoria tritici; type: in vivo; details: field conditions, tank-mix, control (no treatment) 4.68
Protocol: as §2, §1

Erwinia sp. = assay: Kirby-Bauer disk diffusion test, bacterial pathogens (inhibition zones, halo effect); details: Nutrient Agar, tank-mixes

| Structure (SMILES) | Bulk density (winter wheat) [kg/L] | The Thousand Grain Weight (TGW) (winter wheat) [g] | Yield (winter wheat) [dt/ha] | Biomass (winter wheat) [dt/ha] | The Thousand Grain Weight (TGW) (oilseed rape) [g] | Bulk density (oilseed rape) [kg/L] | Yield (oilseed rape) [dt/ha] | Biomass (oilseed rape) [dt/ha] | Efficacy Sclerotinia sclerotiorum (Sclerotinia sclerotiorum) [scale 0-10] | Efficacy Colletotrichum spp. (Colletotrichum spp.) [scale 0-10] | Bulk density (soya) [kg/L] | Yield (soya) [dt/ha] | Biomass (soya) [dt/ha] | The Thousand Grain Weight (TGW) (soya) [g] | Efficacy Phoma lingam (Phoma lingam) [scale 0-10] | Efficacy Peronospora manshurica (Peronospora manshurica) [scale 0-10] | Efficacy Zymoseptoria tritici (Zymoseptoria tritici) [scale 0-10] | Efficacy % (Erwinia sp.; control 0.00) [%] | Erwinia sp. bacterial growth (Erwinia sp.; control 3.5 mm) [mm] |
| --- | --- | --- | --- | --- | --- | --- | --- | --- | --- | --- | --- | --- | --- | --- | --- | --- | --- | --- | --- |
| CC1(C)CCC(Cc2ccc(Cl)cc2)C1(O)Cn1cncn1 (stereo not drawn) [Metconazole (90)] | 0.67 | 46.20 | 78.95 | 172.50 | 6.13 | 0.67 | 33.63 | 152.50 | 4.11 | 2.31 | 0.724 | 32.86 | 146.7 | 207.0 | 2.99 | 3.13 | 3.11 |  |  |
| CCCN(CCOc1c(Cl)cc(Cl)cc1Cl)C(=O)n1ccnc1 [Prochloraz (450)] | 0.65 | 46.90 | 71.51 | 157.50 | 5.72 | 0.68 | 30.06 | 125.00 | 4.17 | 2.79 | 0.743 | 41.37 | 176.7 | 211.5 | 3.11 | 3.37 | 3.37 | 0.00 | 3.5 |
